# Reference: US20260124183A1, “METHODS OF TREATING SPINOCEREBELLAR ATAXIAS” (Biohaven Therapeutics Ltd., priority 2022, published 2026)
# Where a name gives a salt, the structure may show the parent alone.
# Legend:
# [1] = tested on: spinocerebellar ataxia (SCA); assay: Phase 3 clinical study of troriluzole in spinocerebellar ataxia: f-SARA total score change; assay type: in vivo, human; conditions: for LS mean change difference in f-SARA score from baseline vs placebo: Week 48, 200 mg daily
# Experimental: Phase 3 Clinical Study for Troriluzole in Adult Subjects with Spinocerebellar Ataxia
# (§1) The purpose of this study is to compare the efficacy of Troriluzole (200 mg once daily) versus placebo after 48 weeks of treatment in subjects with spinocerebellar ataxia (SCA).
# (§2) • Study Type: Interventional (Clinical Trial) • Actual Enrollment: 218 participants • Allocation: Randomized • Intervention Model: Parallel Assignment • Masking: Triple (Participant, Care Provider, Investigator) • Primary Purpose: Treatment • Official Title: A Phase III, Long-Term, Randomized, Double-blind, Placebo-controlled Trial of Troriluzole in Adult Subjects With Spinocerebellar Ataxia.
# (§3) • Arm • Experimental: Arm 1: BHV-4157 • Troriluzole 200 mg by mouth • Placebo Comparator: Arm 2: Placebo • Placebo 200 mg by mouth • Intervention/Treatment • Drug: troriluzole • 200 mg by mouth • Drug: placebo • 200 mg by mouth
# • 1. Change from Baseline in the total score of the Modified Functional Scale for the Assessment and Rating of Ataxia (f-SARA) after 48 weeks of treatment. [Time Frame: Baseline to week 48] • An increase in the total score indicates a worsening of symptoms.
# • 1. Subjects with a known or suspected diagnosis of the following specific hereditary ataxias: SCA1, SCA2, SCA3, SCA6, SCA7, SCA8 and SCA10; currently only enrolling SCA 1, SCA2, SCA3, SCA7, and SCA10 (the cap has been met for SCA6 and SCA8 (on May 31, 2019)); • a. A subject should have a confirmed genotypic diagnosis from a CLIA certified lab (can produce test results); or • b. A subject has a family member that has a confirmed genotypic diagnosis from a CLIA certified lab (can produce test results) and must be willing to undergo genetic testing to confirm underlying SCA diagnosis; or • c. A subject has a confirmed genotypic diagnosis from a lab that is not CLIA certified and must be willing to undergo genetic testing to confirm underlying SCA diagnosis; or • d. […] Ability to ambulate 8 meters without human assistance (canes and other devices allowed). • 3. Screening f-SARA total score ≥3. • 4. Score of ≥1 on gait subsection of the f-SARA. • 5. Determined by the investigator to be medically stable at Baseline/randomization as assessed by medical history, physical examination, laboratory test results, and electrocardiogram testing.
# • 1. A ≥2-point difference on the Modified Functional SARA score between screening and baseline. • 2. MMSE score <24. • 3. […] A prominent spasticity or dystonia that, in the opinion of the investigator, will compromise the ability of the SARA instrument to assess underlying ataxia severity. • 5. A score of 4 on any individual item (Items 1-4) of the f-SARA. • 6. Subjects should be excluded at screening or baseline if medical conditions have arisen or there is a change in disease status that could confound the ability of the SARA to accurately reflect changes in ataxia severity. • 7. Active liver disease or a history of hepatic intolerance to medications that in the investigator's judgment, is medically significant.
# [2] = tested on: spinocerebellar ataxia (SCA); assay: Phase 3 clinical study: adverse events of fall, safety and tolerability; assay type: in vivo, human
# Experimental: as §1, §2, §3
# • 1. Change from baseline in Patient Impression of Function and Activities of Daily Living Scale (PIFAS) score at Randomization Phase Week 48. [Time Frame: Baseline to week 48] • An increase in the total score indicates a worsening of symptoms. • 2. Change from baseline in Activities of Daily Living Scale from the Friedreich's Ataxia Rating Scale (FARS-ADL) at Randomization Week 48. [Time Frame: Baseline to week 48] • An increase in the total score indicates a worsening of symptoms. • 3. Change from baseline in Functional Staging for Ataxia from the Friedreich's Ataxia Rating Scale (FARS-FUNC) at Randomization Phase Week 48. [Time Frame: Baseline to week 48] • An increase in the total score indicates a worsening of symptoms. • 4. Frequency of subjects with the following adverse events (AEs) identified from case report forms: AEs (by severity; by relationship to study drug; overall); SAEs; and AEs leading to treatment discontinuation. [Time Frame: Baseline to week 48]
# [3] = Solubility of drug substance in water; assay type: physicochemical
compound,measurement,setting,value
"CN(CC(=O)Nc1nc2ccc(OC(F)(F)F)cc2s1)C(=O)CNC(=O)CN [troriluzole, 2-amino-N-({methyl-[(6-trifluoromethoxy-benzothiazol-2-ylcarbamoyl)-methyl]-carbamoyl}-methyl)-acetamide monohydrate monohydrochloride]",LS mean change difference compared to placebo,"[1]; SCA3 patient able to walk without assistance at baseline, week 4, 200 mg daily",at least −0.67
same,LS mean change difference compared to placebo,"[1]; SCA3 patient, week 4, 200 mg daily",at least −0.46
same,LS mean change difference compared to placebo,"[1]; SCA3 patient, week 8, 200 mg daily (first statement)",at least −0.12
same,LS mean change difference compared to placebo,"[1]; SCA3 patient, week 8, 200 mg daily (subgroup not given)",at least −0.33
same,LS mean change difference compared to placebo,"[1]; SCA3 patient, week 12, 200 mg daily (first statement)",at least −0.46
same,LS mean change difference compared to placebo,"[1]; SCA3 patient, week 12, 200 mg daily (subgroup not given)",at least −0.71
same,LS mean change difference compared to placebo,"[1]; SCA3 patient, week 24, 200 mg daily (first statement)",at least −0.17
same,LS mean change difference compared to placebo,"[1]; SCA3 patient, week 24, 200 mg daily (subgroup not given)",at least −0.40
same,LS mean change difference compared to placebo,"[1]; SCA3 patient, week 36, 200 mg daily (first statement)",at least −0.72
same,LS mean change difference compared to placebo,"[1]; SCA3 patient, week 36, 200 mg daily (subgroup not given)",at least −0.55
same,LS mean change difference in f-SARA score from baseline vs placebo,"[1]; SCA3 patients able to walk without assistance at baseline (f-SARA Gait Item score=1), nominal p=0.031, 95% CI −1.36, −0.07",−0.71
same,LS mean change difference in f-SARA score from baseline vs placebo,"[1]; SCA3 subgroup, nominal p=0.053, 95% CI −1.12, 0.01, post-hoc",−0.55
same,"primary endpoint, change from baseline to Week 48 on f-SARA (statistical outcome)","[1]; overall SCA population, 200 mg once daily vs placebo, 48 weeks, p=0.76",did not reach statistical significance
same,f-SARA score at the 48-week endpoint,"[1]; overall study population N=213, mean baseline score 4.9, 200 mg once daily, placebo 5.2",5.1
same,reduction of fall risk versus placebo,"[2]; SCA3 genotype, patient reported falls as adverse events, nominal p=0.04",approximately 50%
same,AE incidence of falls,"[2]; SCA3 genotype, placebo 32%",16%
same,reduction of fall risk versus placebo,"[2]; all genotypes, patients able to ambulate at baseline (f-SARA Gait Item score=1), nominal p=0.043",approximately 59%
same,AE incidence of falls,"[2]; all genotypes, patients able to ambulate at baseline (f-SARA Gait Item score=1), placebo 23%",10%
same,safety and tolerability profile,"[2]; overall, Phase 3 study",favorable safety and tolerability profile
same,solubility in water,[3],freely soluble in water
